Measurements taken from patent publication US20020091086A1, “Peptides that block viral infectivity and methods of use thereof” (priority 1999, published 2002).
Like-named read-outs stand apart in the source and are kept apart here. Peptide text beside a SMILES is read from it.

Legend:
HIV-1 [1] = conditions: 100 μM, H9 cells
Source text: (§1) In this example, the methods that were used to analyze the ability of various tripeptides to inhibit HIV-1, HIV-2, and SIV replication are disclosed. In Experiments 1 and 2, approximately 200,000 H9 cells were infected with HIV-1, HIV-2 or SIV at 25 TCID50 to test the inhibitory effect of the following synthesized tripeptides LKA-NH2, ILK-NH2, GPQ-NH2, GHK-NH2, GKG-NH2, ACQ-NH2, CQG-NH2, ARV-NH2, KAR-NH2, HKA-NH2, GAT-NH2, KAL-NH2, and GPG-NH2. Accordingly, the H9 cells were resuspended with or without the different peptides (approximately 100 μM) in 1 ml of RPMI 1640 medium supplemented with 10% (v/v) heat-inactivated fetal bovine serum (FBS), penicillin (100 u/ml), and streptomycin (100 u/ml), all available through GIBCO, and Polybrene (2 μg/ml), available through Sigma. Thereafter, viruses were added at 25 TCID50 in a volume of 20-30μl. Cells were incubated with virus at 37° C. for 1 hr then pelleted at 170×g for 7 minutes. The cells were then washed three times in RPMI medium without peptides at room temperature and pelleted at 170×g for 7 minutes, as above. After the final wash, the cells were resuspended in RPMI culture medium containing the peptides in a 24-well plate (Costar corporation) and were kept at 37° C. in 5% CO2 with humidity.
(§2) Culture supernatants were collected and analyzed when the medium was changed at 4, 7, 10, and 14 days post infection. To monitor the replication of virus, reverse transcriptase (RT) activity in the supernatants was assayed using a commercially available Lenti-RT activity kit. (Cavidi Tech, Uppsala, Sweden). The amount of RT was determined with the aid of a regression line of standards. The results are presented as absorbance values (OD) and higher absorbance indicates a higher protein concentration and greater viral infection. Syncytium formation was also monitored by microscopic examination.

HIV-1 [2] = conditions: H9 cells; for Day 10 RT HIV-1 (1:5): supernatant diluted 5-fold; for HIV-1 infection, result in words: summary of Experiments 1-5
Source text: as §1, §2
In Experiment 3, (Table 4), approximately 200,000 H9 cells were infected with HIV-1, HIV-2 or SIV at 25 TCID50 to test the inhibitory effect of different concentrations of peptides GPG-NH2, GKG-NH2 and CQG-NH2 and combinations of these peptides (the indicated concentration corresponds to the concentration of each tripeptide). As above, H9 cells were resuspended with or without the different peptides at varying concentrations in 1 ml of RPMI 1640 medium supplemented with 10% (v/v) heat-inactivated fetal bovine serum (FBS), penicillin (100 u/ml), and streptomycin (100 u/ml), and Polybrene (2 μg/ml). Thereafter, viruses were added at 25 TCID50 in a volume of 20-30 μl. Cells were incubated with the indicated virus at 37° C. for 1 hr then pelleted at 170×g for 7 minutes. The cells were then washed three times in RPMI medium without peptides at room temperature and pelleted at 170×g for 7 minutes, as above. After the final wash, the cells were resuspended in RPMI culture medium containing the peptides in a 24-well plate (Costar corporation) and kept at 37° C. in 5% CO2 with humidity.
Culture supernatants were collected when the medium was changed at 4, 7, and 11 days post infection. As above, the replication of each virus was monitored by detecting reverse transcriptase (RT) activity in the supernatants using the Lenti-RT activity kit. (Cavidi Tech). The amount of RT was determined with the aid of a regression line of standards. The results are presented as absorbance values (OD) and higher absorbance indicates a higher protein concentration and greater viral infection.
In Experiment 4, (Table 5) approximately 200,000 H9 cells were infected with HIV-1 at 25 TCID50 to test the inhibitory effect of different concentrations of peptides GPG-NH2, GKG-NH2 and CQG-NH2 and combinations of these peptides (the indicated concentration corresponds to the total concentration of tripeptide).

HIV-1 SF-2 virus strain = assay: stability in human blood and plasma by HIV-1 replication assay in HUT78 cells; format: in vitro ADME; conditions: incubated 1, 2 and 4 hours at 37° C. in human blood or plasma; final 20 μM or 100 μM; p24 day 7 and 14
Procedure: This example describes several studies that were performed to access the stability of small peptides in human blood and plasma. Accordingly, human blood was taken freshly and treated with EDTA. Plasma was separated by centrifuging at 2,500 rpm for 20 minutes. GPG-NH2 was added into blood or plasma at concentrations of 10 mM or 50 mM followed by incubation in 37° C. for 1, 2 and 4 hours, respectively. […] After incubation in 37° C., the GPG-NH2 containing blood was centrifuged at 2,500 rpm for 20 minutes to isolate plasma. Some of the plasma samples were treated with CaCl2 at concentration of 5 mM in 37° C. for 10 minutes followed by centrifuging at 13,000 rpm for 30 minutes and the supernatant are referred to as CaCl2 treated plasma. Then all the GPG-NH2 containing plasma samples were diluted in RPMI medium to give the final concentrations 20 μM or 100 μM of GPG-NH2 (500 fold dilutions) and were then used in HIV-1 replication assays.
The replication assays were performed on HUT78 cells and the HIV-1 SF-2 virus strain was used. Briefly, approximately 200,000 cells were resuspended in the diluted GPG-amide containing medium, plasma, or plasma from blood. The GPG-NH2 containing medium, plasma, or plasma from blood was incubated with the cells for either 1 hr, 2 hr, or 4 hr at 37° C. Subsequently, SF-2 virus was added at 25 TCID50. […]

[3] = system: HIV-1 isolate p7300 (low PI); assay: resistant HIV-1 isolates in PBMC, p24 ELISA; format: cell-based; conditions: GPG 100 μM, 14 days post infection
human mononuclear cells = assay: in vitro proliferative response of human mononuclear cells; format: cell-based; conditions: 20 μM
Procedure: Next, the toxicity to normal human lymphomonocytic cells (PBMC) was examined. […] The effect of GPG-NH2 on in vitro proliferative response of human mononuclear cells was also tested.

[4] = Experiment 3, 5 μM (of each tripeptide)
[5] = Experiment 3, 20 μM (of each tripeptide)
[6] = Experiment 4, 5 μM (total concentration of tripeptide)
[7] = Experiment 4, 15 μM (total concentration of tripeptide)

Row | Molecule | HIV-1 Syncytia (HIV-1 [1]; Experiment 1) | HIV-1 Syncytia (HIV-1 [1]; Experiment 2) | Day 7 RT HIV-1 (HIV-1 [2]; Experiment 1, 100 μM) [OD] | Day 10 RT HIV-1 (HIV-1 [2]; Experiment 1, 100 μM) [OD] | Day 7 RT HIV-1 (HIV-1 [2]; Experiment 2, 100 μM) [OD] | Day 10 RT HIV-1 (HIV-1 [2]; Experiment 2, 100 μM) [OD] | Day 7 RT HIV-1 (HIV-1 [2]; [4]) [OD] | Day 10 RT HIV-1 (HIV-1 [2]; [4]) [OD] | Day 7 RT HIV-1 (HIV-1 [2]; [5]) [OD] | Day 10 RT HIV-1 (HIV-1 [2]; [5]) [OD] | Day 7 RT HIV-1 (HIV-1 [2]; Experiment 3, 100 μM) [OD] | Day 10 RT HIV-1 (HIV-1 [2]; Experiment 3, 100 μM) [OD] | Day 7 RT HIV-1 (HIV-1 [2]; [6]) [OD] | Day 10 RT HIV-1 (1:5) (HIV-1 [2]; [6]) [OD] | Day 7 RT HIV-1 (HIV-1 [2]; [7]) [OD] | Day 10 RT HIV-1 (1:5) (HIV-1 [2]; [7]) [OD] | Day 7 RT HIV-1 (HIV-1 [2]; Experiment 4, 45 μM) [OD] | Day 10 RT HIV-1 (1:5) (HIV-1 [2]; Experiment 4, 45 μM) [OD] | HIV-1 infection, result in words (HIV-1 [2]) | further results
1 | NCCCC[C@H](NC(=O)CN)C(=O)NCC(N)=O [GKG-NH2, glycyl-lysyl-glycine amide] (H-Gly-Lys-Gly-NH2) | neg | neg | 0.080 | 0.074 | 0.145 | 0.345 | 1.587 | 1.683 | 1.616 | 2.036 | 0.823 | 1.520 | 3.303 | 1.287 | 3.551 | 1.530 | 3.126 | 0.410 | inhibited and/or prevented HIV-1 infection | –
2 | NCC(=O)N1CCC[C@H]1C(=O)NCC(N)=O [GPG-NH2, glycyl-prolyl-glycine amide] (H-Gly-Pro-Gly-NH2) | neg | neg | 0.068 | 0.074 | 0.090 | 0.143 | 1.527 | 2.398 | 0.239 | 0.692 | – | – | 2.970 | 1.107 | 0.894 | 0.095 | 0.177 | 0.034 | inhibited and/or prevented HIV-1 infection | ability to inhibit HIV-1 after incubation in medium, plasma or blood (HIV-1 SF-2 virus strain): No significant difference; Day 7 RT HIV-1 (HIV-1 [2]; Experiment 4, 100 μM): 0.150 OD; Day 10 RT HIV-1 (1:5) (HIV-1 [2]; Experiment 4, 100 μM): 0.033 OD; % reduction [3]: (100%); HIV-1 p24 [3]: <500 pg/mL; anti-proliferative properties on T cells (human mononuclear cells): marginal if any direct anti-proliferative properties; function of accessory cells (monocytes and dendritic cells) (human mononuclear cells): did not affect the function of accessory cells
3 | cystyl-glutaminyl-glycine amide [CQG-NH2] | neg | neg | 0.091 | 0.108 | 0.143 | 1.546 | 1.547 | 2.028 | 1.578 | 1.484 | 1.520 | 2.014 | 2.991 | 1.459 | 2.726 | 1.413 | 3.124 | 1.364 | inhibited and/or prevented HIV-1 infection | –
